The values that follow come from patent US7803836B2, “Aminophenylsulfonamide derivatives as HIV protease inhibitor” (priority 2005, dated 2010).

Read-outs that look alike come from different tables or passages of the source.

Holding throughout (assay): microbe, parasite or virus in culture
What all share (type): cell-based

For assay [1], the system named is clinically isolated HIV strain A (A-2-001). As for the experimental part:
(§1) The compounds were tested in a cellular assay using the MT4-LTR-EGFP cells for anti-viral activity. […] Because of the increasing emergence of drug resistant HIV strains, the present compounds were tested for their potency against clinically isolated HIV strains harboring several mutations. […] The viral strains A, B, C and D contain mutations as indicated below in Table 3.
(§2) The cellular assay was performed according to the following procedure. HIV- or mock-infected MT4-LTR-EGFP cells were incubated for three days in the presence of various concentrations of the compounds according to the invention. Upon infection, the viral tat protein activates the GFP reporter. At the end of the incubation period, the GFP signal was measured. […] The inhibitory activity of the compound was monitored on the virus-infected cells and was expressed as EC50. These values represent the amount of the compound required to protect 50% of the cells from virus infection.

Assay [2] deals with clinically isolated HIV strain B (B-2-001). As for the experimental part:
as §1, §2

For assay [3], the system named is clinically isolated HIV strain C (C-2-001). As for the experimental part:
as §1, §2

Assay [4] has as its system clinically isolated HIV strain D (D-2-001). As for the experimental part: as §1, §2
Assay [5] deals with wild type laboratory HIV strain (WT IIIB-2-001). The settings on record: Human immunodeficiency virus 1, IIIB, 72 h, read-out: Virus Strains WT-IIIB-2-001. As for the experimental part:
as §1, §2

[6] abbreviates: Human immunodeficiency virus 1, 72 h, read-out: Virus Strains A-2-001.
Setting [7] is: Human immunodeficiency virus 1, 72 h, read-out: Virus Strains B-2-001.
[8] abbreviates: Human immunodeficiency virus 1, 72 h, read-out: Virus Strains C-2-001.
Where [9] appears, read: Human immunodeficiency virus 1, 72 h, read-out: Virus Strains D-2-001.

`CC(C)CN1CC[C@H](Nc2cc(S(=O)(=O)N(CC(C)C)C[C@@H](O)[C@H](Cc3ccccc3)NC(=O)O[C@H]3CO[C@H]4OCC[C@H]43)ccc2N)C1` (stereo in doubt) [Compound 83, (3-{[4-amino-3-(1-isobutyl-pyrrolidin-3-ylamino)-benzenesulfonyl]-isobutyl-amino}-1-benzyl-2-hydroxy-propyl)-carbamic acid hexahydro-furo-[2,3-b]furan-3-yl ester]: the EC50 was 3.39 nM in assay [1] (setting [6]); 129 nM in assay [2] (setting [7]); 16.6 nM in assay [3] (setting [8]); 75.9 nM in assay [4] (setting [9]); 26.3 nM in assay [5].
On the same counts, the results for `CC(C)CN(C[C@@H](O)[C@H](Cc1ccccc1)NC(=O)O[C@H]1CO[C@H]2OCC[C@H]21)S(=O)(=O)c1ccc(N)c(N[C@H]2CCN(C3CCCC3)C2)c1` (stereo in doubt) [Compound 79, (3-{[4-amino-3-(1-cyclopentyl-pyrrolidin-3-ylamino)-benzene-sulfonyl]-isobutyl-amino}-1-benzyl-2-hydroxy-propyl)-carbamic acid hexahydrofuro[2,3-b]furan-3-yl ester] are 20.9 nM, 275 nM, 50.1 nM, 38.9 nM and 66.1 nM.
For the compound `CC(C)CN(C[C@@H](O)[C@H](Cc1ccccc1)NC(=O)O[C@H]1CO[C@H]2OCC[C@H]21)S(=O)(=O)c1ccc(N)cc1` [TMC 114, (3R,3aS,6aR)-hexahydrofuro[2,3-b]furan-3-yl N-[(1S,2R)-1-benzyl-2-hydroxy-3-(N 1-isobutylsulfanilamido)propyl]carbamate, reference compound], the EC50 in assay [1] (Human immunodeficiency virus 1, read-out: pEC50-A (converted)) was 7.94 nM; in assay [2] (Human immunodeficiency virus 1, read-out: pEC50-B (converted)) it was 851 nM; in assay [3] (Human immunodeficiency virus 1, read-out: pEC50-C (converted)) it was 89.1 nM; in assay [4] (Human immunodeficiency virus 1, read-out: pEC50-D (converted)) it was 4790 nM.
